Results on one substance are retold here after US20230303623A1, “PEPTIDES AND METHODS OF USE” (REALTA LIFE SCIENCES, INC., priority 2020, published 2023).

The test system of assay [1] is purified human Pan T-cells. Put plainly: T-cell exhaustion protocol (repeated CD3/CD28 Dynabead stimulation). The class given is cell-based. The conditions noted are these: ELISA, listed as RLS-0122. How it is done: Purified human pan-T-cells were subject to stimulation with Dynabeads every 48 hours over the period of 8 days with cells also receiving PIC1 peptides (2 mg/ml) at each stimulation. Cells not receiving Dynabeads were run in parallel to assess background levels of Caspase 3/7 signal. At the eighth day, cells were harvested, and the levels of Caspase 3/7 determined by ELISA.
Purified human pan-T-cells were subject to stimulation with Dynabeads every 48 hours over the period of 8 days with cells also receiving PIC1 peptides (2 mg/ml) at each stimulation. Cell supernatants were collected at each stimulation and levels of IL-2 and IFN-gamma assayed by ELISA.
T-cell exhaustion is a form of T-cell dysfunction that occurs in cancer. It is generally defined by poor effector function, reduction in cytokine release (e.g., IL-2, TNF-alpha, IFN-gamma), sustained expression of inhibitory receptors (e.g., PD-1, LAG-3, CD244, CD160) with the progressive loss of effector function due to overstimulation. Exhaustion can prevent optimal control of tumor growth. Exhausted T cells are prevalent in the tumor microenvironment (TME) and can lead to T-cell apoptosis. T-cell exhaustion is reversible and pharmaceutical inhibition of T-cell exhaustion has been considered a promising strategy by many cancer researchers. To ascertain if PIC1 peptides could reverse T-cell exhaustion and increase T cell viability and effector function, a T-cell exhaustion protocol was developed. To induce T-cell exhaustion, purified human Pan T-cells were stimulated with T-Activator CD3/CD28 Dynabeads and cells were washed and re-stimulated every 48 hours. PIC1 peptides were added to the cells after each stimulation with Dynabeads. After three to four stimulations, cells were harvested for readouts which consisted of assessing T-cell apoptosis by measuring Caspase 3/7 levels and production of cytokines IL-2 and IFN-gamma, which are indicative of T-cell functionality. […] To further evaluate if PIC1 peptides could restore T-cell functionality in cells that have undergone the exhaustion protocol, the inventors next assessed production of cytokines IL-2 and IFN-gamma. Supernatants from the cells after each stimulation was collected and the cytokines measured by ELISA. […] The lower level of IFN-gamma signal was consistently seen in this assay.

The test system of assay [2] is classical complement pathway activation (C1q with C1r and C1s from A-498 cells). In words: Classical complement activation by A-498 cell supernatant, C4a ELISA. The note with it: increasing doses 0-8 mg/ml; listed as RLS-0122. The class given is biochemical, human. How it is done: Supernatants from A-498 cells were added to purified human C1q pre-incubated with increasing doses of RLS-0122 or RLS-0174 and loaded onto an IgG coated plate. Samples were then incubated for 1 hour at 37° C. After incubation samples were washed 3 times with PBS-T before the addition of purified human C4 (4 ug/ml) and incubated for 1.5 hours at 37° C. The supernatants were collected for analysis on Quidel's MicroVue Complement C4a ELISA.
Effective clear-cell renal cell carcinoma (ccRCC) therapies are needed, particularly at the metastatic stage when surgery is ineffective. Complement is a key factor in tissue inflammation, favoring cancer progression through the production of complement component 5a (C5a) (Roumenina et al., Cancer Immunol Res; 7(7) July 2019). Using data mining techniques, ccRCC has been identified as a cancer type expressing concomitantly high expression of the components that are part of the classical complement pathway. High densities of cells producing classical complement pathway components C1q and C4 and the presence of C4 activation fragment deposits in primary tumors are often correlated with poor prognosis. […] The inventors tested the ability of RLS-0122 to block complement activation in human kidney carcinoma cell line A498 system in vitro as assessed by the reduction in C4a levels. […]

For assay [3], the target named is T1, CTLA-4 (Homo sapiens, UniProt P16410).
T1 sequence (P16410 36-223): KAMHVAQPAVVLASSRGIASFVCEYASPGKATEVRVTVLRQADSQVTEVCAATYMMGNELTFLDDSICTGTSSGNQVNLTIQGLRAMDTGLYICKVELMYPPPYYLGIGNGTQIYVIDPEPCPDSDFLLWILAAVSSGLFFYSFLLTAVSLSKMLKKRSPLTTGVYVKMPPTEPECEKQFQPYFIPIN
Put plainly: CTLA-4 Blockade Bioassay (Promega). The format is cell-based. More on the design: host or cells: Jurkat T cells (CTLA-4 effector cells) co-cultured with aAPC/Raji cells. The note with it: increasing concentrations; listed as RLS-0122. How it is done:
CTLA-4 effector cells were incubated with aAPC/Raji Cells in the absence or presence of increasing concentrations of anti-CTLA-4 antibody (positive control), RLS-0122, RLS-0150, RLS-0154, RLS-0164 and RLS-0168 and RLS-0088 (negative control). Luminescence was detected in luminometer plate reader. The drop-off in signal with the test peptides at high concentrations is due to cell death as a result of peptide buffer effects on the cells.
To assess if PIC1 peptides could block CTLA-4 inhibitory activity in a cell-based assay, select peptides were screened in the CTLA-4 Blockade Bioassay (Promega). This bioluminescent cell-based assay can be used to measure the potency and stability of molecules targeting CTLA-4 and consists of two genetically engineered cell lines: CTLA-4 effector cells: Jurkat T cells expressing human CTLA-4 and a luciferase reporter driven by a native promoter which responds to TCR/CD28 activation and aAPC/Raji Cells: Raji cells expressing an engineered cell surface protein designed to activate cognate TCRs in an antigen-independent manner and endogenously expressing CTLA-4 ligands CD80 and CD86. When the two cell types are co-cultured, CTLA-4 competes with CD28 for their shared ligands, CD80 and CD86 and thus inhibits CD28 pathway activation and promoter-mediated luminescence. Addition of a molecule that blocks the interaction of CTLA-4 with its ligands CD80 and CD86 results in promoter-mediated luminescence.

Where [4] appears, read: peptides 2 mg/ml, stimulation 2.

“Also recorded” adds a separate entry of the source.

For the substance “IAdLILEP(Sar)CCQERAA (IALILEPXCCQERAA; D-Leu; sarcosine; MOD_RES (3)..(3) D-amino acid; MOD_RES (8)..(8) Sarcosine) [PA-0122]”, the “Caspase 3/7 levels, in words” value in assay [1] (peptides 2 mg/ml at each stimulation, day 8) is “very low to undetectable levels; also recorded: reduced levels”. For the same substance, in assay [1] (setting [4]), the “IFN-gamma levels in cell supernatants, in words” value is given as “detectable at stimulation 2; also recorded: increased levels” and the “IL-2 levels in cell supernatants, in words” value is “detectable IL-2 at stimulation 2; also recorded: increased levels”. Further, the “C4a generation, in words” value in assay [2] is recorded as “dose-dependently reduced the level of C4a generation; also recorded: can inhibit classical complement pathway activation”. Moreover, the “inhibition of CTLA-4 mediated cell signaling (increase in luminescence), in words” value in assay [3] is reported as “showed inhibitory activity; also recorded: able to inhibit CTLA-4 mediated cell signaling”.
